Experiment: recombinant UMI read abundance after kanamycin selection (control-corrected) (log10(CPM+1)); higher = more efficient recombination; extreme values may be limits of the assay; sequences stand for … in AGTGCAGAGAAAATCGGCCAGTTTTCTCTGCCTGCAGTCCGCATGCCGTGGGACCCCTTGGGTTCTAACCTGTTGCCTAGATTTATGCAGCGGACTGCCTTTCTCCCAAAGTGATAAACCGG…AGGTTGGTTTCACT; site = the 11-nt donor
Protocol: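 Pooled E. coli donor-specificity screen for the IS621 bridge recombinase. Each library member carries a reprogrammed 11-nt donor and a full-length LE bridge RNA expressed in cis from the natural promoter, with a paired donor-binding loop (8-nt LDG + 4-nt RDG) and a target-binding loop fixed to T5. It is co-electroporated with a T5 target plasmid; recombinase is induced with 0.07 mM IPTG and recombinants are selected on kanamycin. UMIs are counted as CPM, averaged over two biological replicates and corrected by the unselected control. Molecule = full bridge RNA written as DNA, built from the T5 scaffold: LDG = donor specificity nt 1-8, RDG = reverse complement of nt 8-11.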
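Note: IS621 bridge recombinase in Escherichia coli cells against a fixed T5 target plasmid.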

In order of rising “recombinant UMI read abundance (log10)” value:
1. AGCCATTCATGGACCGGTTTTCCCGGTAATCCGTATTTGAC (site AGCCCTTCTGT)  0
2. AGCCATTCATGGACCGGTTTTCCCGGTAATCCGTATTTGAC (site AGCCGTTCTGT)  0
3. AGCCATTCATGGACCGGTTTTCCCGGTAATCCGTATTTGAC (site AGCCTTTCTGT)  0
4. AGCCCTTCATGGACCGGTTTTCCCGGTAATCCGTATTTGAC (site AGCCATTCTGT)  0
5. AGCCCTTCATGGACCGGTTTTCCCGGTAATCCGTATTTGAC (site AGCCGTTCTGT)  0
6. AGCCTAGCATGGACCGGTTTTCCCGGTAATCCGTATTTGGT (site AGCCTAGCTAC)  0
7. AGCCTGGCATGGACCGGTTTTCCCGGTAATCCGTATTTGTT (site AGCCTAGCTAA)  0
8. AGCCTGTCATGGACCGGTTTTCCCGGTAATCCGTATTTGAC (site AGCCTATCTGT)  0
9. AGCCTGTCATGGACCGGTTTTCCCGGTAATCCGTATTTGAC (site AGCCTCTCTGT)  0
10. AGCCTGTCATGGACCGGTTTTCCCGGTAATCCGTATTTGAC (site AGCCTGTCTGT)  0
11. AGCCTGTCATGGACCGGTTTTCCCGGTAATCCGTATTTGAC (site AGCCTTTCTGT)  0
12. AGCCTTCCATGGACCGGTTTTCCCGGTAATCCGTATTTGAC (site AGCCTTACTGT)  0
13. AGCCTTCCATGGACCGGTTTTCCCGGTAATCCGTATTTGAC (site AGCCTTCCTGT)  0
14. AGCCTTCCATGGACCGGTTTTCCCGGTAATCCGTATTTGAC (site AGCCTTGCTGT)  0
15. AGCCTTCCATGGACCGGTTTTCCCGGTAATCCGTATTTGAC (site AGCCTTTCTGT)  0
16. AGCCTTGCATGGACCGGTTTTCCCGGTAATCCGTATTTGTT (site AGCCTTGCTAA)  0
17. AGCCTTTCATGGACCGGTTTTCCCGGTAATCCGTATTTGAG (site AGCCTTTCTAT)  0
18. AGCCTTTCATGGACCGGTTTTCCCGGTAATCCGTATTTGAG (site AGCCTTTCTCT)  0
19. AGCCTTTCATGGACCGGTTTTCCCGGTAATCCGTATTTGAG (site AGCCTTTCTGT)  0
20. AGCTCAACATGGACCGGTTTTCCCGGTAATCCGTATTTGGG (site AGCTCAACTCC)  0
21. AGCTCAACATGGACCGGTTTTCCCGGTAATCCGTATTTGGG (site AGCTCACCTCC)  0
22. AGCTCAACATGGACCGGTTTTCCCGGTAATCCGTATTTGGG (site AGCTCAGCTCC)  0
23. AGCTCAACATGGACCGGTTTTCCCGGTAATCCGTATTTGGG (site AGCTCATCTCC)  0
24. AGCTCAGCATGGACCGGTTTTCCCGGTAATCCGTATTTGGG (site AACTCAGCTCC)  0
25. AGCCTAGCATGGACCGGTTTTCCCGGTAATCCGTATTTGGT (site AGCCTAGCTAT)  0.00284
26. AGCCTTGCATGGACCGGTTTTCCCGGTAATCCGTATTTGTT (site AGCCTAGCTAA)  0.00391
27. AGCCTAGCATGGACCGGTTTTCCCGGTAATCCGTATTTGGT (site AGCCTAGCTAG)  0.00404
28. AGCGTAGCATGGACCGGTTTTCCCGGTAATCCGTATTTGTT (site AGCTTAGCTAA)  0.00472
29. AGCCTTTCATGGACCGGTTTTCCCGGTAATCCGTATTTGAG (site AGCCTTTCTTT)  0.007
30. AGCCCTTCATGGACCGGTTTTCCCGGTAATCCGTATTTGAC (site AGCCTTTCTGT)  0.00743
31. AGCTCAGCATGGACCGGTTTTCCCGGTAATCCGTATTTGGC (site AGCTCAGCTCC)  0.00906
32. AGCATAGCATGGACCGGTTTTCCCGGTAATCCGTATTTGTT (site AGCTTAGCTAA)  0.00966
33. AGCCTTGCATGGACCGGTTTTCCCGGTAATCCGTATTTGTT (site AGCCTCGCTAA)  0.0115
34. AGCTCAGCATGGACCGGTTTTCCCGGTAATCCGTATTTGGG (site AGATCAGCTCC)  0.0131
35. AGATTCCCATGGACCGGTTTTCCCGGTAATCCGTATTTGTG (site AGGTTCCCTCA)  0.0134
36. AGCATAGCATGGACCGGTTTTCCCGGTAATCCGTATTTGTT (site AGCCTAGCTAA)  0.0149
37. AGCCTGGCATGGACCGGTTTTCCCGGTAATCCGTATTTGTT (site AGCCTGGCTAA)  0.0154
38. AGCCTGGCATGGACCGGTTTTCCCGGTAATCCGTATTTGTT (site AGCCTTGCTAA)  0.0159
39. AGCCTTGCATGGACCGGTTTTCCCGGTAATCCGTATTTGTT (site AGCCTGGCTAA)  0.0183
40. AGATTCCCATGGACCGGTTTTCCCGGTAATCCGTATTTGTG (site AGTTTCCCTCA)  0.0189
41. AGCCTGGCATGGACCGGTTTTCCCGGTAATCCGTATTTGTT (site AGCCTCGCTAA)  0.0194
42. AGCTCAGCATGGACCGGTTTTCCCGGTAATCCGTATTTGGG (site AGCGCAGCTCC)  0.0219
43. AGCTCAGCATGGACCGGTTTTCCCGGTAATCCGTATTTGGG (site ACCTCAGCTCC)  0.026
44. AGCGTAGCATGGACCGGTTTTCCCGGTAATCCGTATTTGTT (site AGCCTAGCTAA)  0.0274
45. AGCATAGCATGGACCGGTTTTCCCGGTAATCCGTATTTGTT (site AGCGTAGCTAA)  0.0357
46. AGCACATCATGGACCGGTTTTCCCGGTAATCCGTATTTGGG (site AGCACATCTCC)  0.0655
47. AGCCTAGCATGGACCGGTTTTCCCGGTAATCCGTATTTGGT (site AGCCTAGCTAA)  0.168
48. AGCTCAGCATGGACCGGTTTTCCCGGTAATCCGTATTTGGG (site AGCACAGCTCC)  0.212
49. AGCTCAGCATGGACCGGTTTTCCCGGTAATCCGTATTTGGG (site AGCCCAGCTCC)  0.263
50. AGCCCTGCATGGACCGGTTTTCCCGGTAATCCGTATTTGGG (site AGCCCTGCTCC)  0.336
51. AGCTCAGCATGGACCGGTTTTCCCGGTAATCCGTATTTGGC (site AGCTCAGCTAC)  0.396
52. AGCTCAGCATGGACCGGTTTTCCCGGTAATCCGTATTTGGC (site AGCTCAGCTTC)  0.398
53. AGCAAGACATGGACCGGTTTTCCCGGTAATCCGTATTTGCA (site AGTAAGACTTG)  0.542
54. AGCGTTACATGGACCGGTTTTCCCGGTAATCCGTATTTGTA (site AGCGTTACTTA)  0.651
55. AGCGTAGCATGGACCGGTTTTCCCGGTAATCCGTATTTGTT (site AGCATAGCTAA)  0.838
56. AGCAAGACATGGACCGGTTTTCCCGGTAATCCGTATTTGCA (site AGGAAGACTTG)  0.969
57. AGCGTAGCATGGACCGGTTTTCCCGGTAATCCGTATTTGTT (site AGCGTAGCTAA)  1.33
58. AGCACGACATGGACCGGTTTTCCCGGTAATCCGTATTTGTC (site AGCACGACTGA)  1.47
59. AGCGATACATGGACCGGTTTTCCCGGTAATCCGTATTTGAA (site AGCGATACTTT)  1.65
60. AGCCAATCATGGACCGGTTTTCCCGGTAATCCGTATTTGGA (site AGCCAATCTTC)  1.67
61. AGCGTGACATGGACCGGTTTTCCCGGTAATCCGTATTTGCC (site AGCGTGACTGG)  1.78
62. AGCCCATCATGGACCGGTTTTCCCGGTAATCCGTATTTGCT (site AGCCCATCTAG)  1.83
63. AGCAAGACATGGACCGGTTTTCCCGGTAATCCGTATTTGCA (site AGAAAGACTTG)  1.86
64. AGCCAAACATGGACCGGTTTTCCCGGTAATCCGTATTTGAG (site AGCCAAACTCT)  1.88
65. AGCATAGCATGGACCGGTTTTCCCGGTAATCCGTATTTGTT (site AGCATAGCTAA)  1.99
66. AGCAAGACATGGACCGGTTTTCCCGGTAATCCGTATTTGCA (site AGCAAGACTTG)  2.01
67. AGCCATTCATGGACCGGTTTTCCCGGTAATCCGTATTTGAC (site AGCCATTCTGT)  2.1
68. AGCCCTTCATGGACCGGTTTTCCCGGTAATCCGTATTTGAC (site AGCCCTTCTGT)  2.11
69. AGCACCACATGGACCGGTTTTCCCGGTAATCCGTATTTGCA (site AGCACCACTTG)  2.15
70. AGCTCAGCATGGACCGGTTTTCCCGGTAATCCGTATTTGGC (site AGCTCAGCTGC)  2.19
71. AGCGTAACATGGACCGGTTTTCCCGGTAATCCGTATTTGAC (site AGCGTAACTGT)  2.86
72. AGCGTAGCATGGACCGGTTTTCCCGGTAATCCGTATTTGCA (site AGCGTAGCTTG)  2.87
